Counter-ions that a name gives are not always drawn. Like-named read-outs stand apart in the source and are kept apart here.
Assays:
[1] = Plasma levels of 9-deoxo-16,16-dimethyl-9-methylene-PGE2 by radioimmunoassay after insertion of a suppository; assay type: in vivo, Rhesus monkeys (Macaca mulatta); conditions: rhesus monkey, plasma, 30 mg, plasma, read-out: Drug Levels
Source text: A. Midtrimester pregnant female Rhesus monkeys (Macaca mulatta) are used. (The first day of menstrual bleeding is designated Day 1 of the menstrual cycle; the first day a female is placed with a male for breeding is designated Day 1 of pregnancy. Pregnancy is confirmed by abdominal palpation of the uterus.)
Blood samples are collected into heparinized syringes at specified times following insertion of a suppository in pregnant or non- pregnant monkeys. Plasma is extracted and assayed for 9-deoxo-16,16-dimethyl-9-methylene-PGE2 content by radioimmunoassay.
C. Six suppository lots are prepared (4), each containing 9- deoxo-16,16-dimethyl-9-methylene-PGE2 or its crystalline potassium salt (Examples 1 and 2). Two lots are made with Witepsol H15 alone as the suppository base, two with Witepsol HIS wax plus 2% colloidal silicon dioxide (CSD) and two with Witepsol H15 plus 2% CSD plus 10% triacetin. Suppositories are prepared using Witepsol H15 suppository wax. Free acid or potassium salt is dispersed in the hot wax using a homogenizer. Two percent colloidal silicon dioxide (CSD) is mixed in by further homogenization. In the third formulation, triacetin (10%) is added before the CSD and then homogenized for one minute. Suppositories are formed in 800 mg aluminum molds and are stored at 4°C until used.
D. The plasma levels of 9-deoxo-16,16-d1methy1-9-methy1ene-PGE2 in monkeys treated with 6 formulations containing either 9-deoxo-16,16-dimethyl-9-methylene-PGE2 free acid or potassium salt are shown in Tables 1-6. In general, higher blood levels are measured in pregnant Rhesus monkeys than in non-pregnant monkeys.

[2] = Water content / hygroscopicity of the crystalline solid; assay type: physicochemical
Description: All solvents used in this example are degassed with nitrogen using a gas dispersion tube for 15 min prior to use. To a stirred solution of 4.82 g of 9-deoxo-16,16-dimethyl-9-methylene-PGE2 in 50 ml of methanol is added a solution of 880 mg of potassium carbonate in 15 ml of water. The reaction mixture is then allowed to stand for 5 min at 25°C and then concentrated under reduced pressure at 35°C. Eight 250 ml portions of anhydrous tetrahydrofuran are added and evaporated to insure complete removal of water. The residue, a pale yellow foam, is dissolved in 15 ml of methanol and added dropwise under a nitrogen atmosphere with vigorous stirring to one liter of diethyl ether. The initial cloudy suspension yields a gum-like residue on the walls of the reaction vessel after about 1 hr. Continued vigorous stirring for 24 hr leads to gradual crystallization and resuspension as a uniform, easily filterable solid. This suspension is then filtered using a medium porosity sintered glass funnel. The solids are washed with 15 ml of fresh diethyl ether at 25°C. After drying for 2 hr in a vacuum desiccator at 25°C, a colorless free-flowing crystalline solid, 5.13 g, is obtained, pure crystalline 9-deoxo-16,16-dimethyl-9-methylene-PGE2 potassium salt. IR absorptions (cm^-1) are observed at 3134, 1652, 1572, 1467, 1392, 1337, 1364, 1344, 1102, 1024, 974, and 883. […]

[3] = Monkey #4, 30 mg Potassium Salt in H15 Suppositories
[4] = Monkey #5, 30 mg Potassium Salt in H15 Suppositories
[5] = Monkey #6 (pregnant animal with uterine recording), 30 mg Potassium Salt in H15 Suppositories
[6] = Monkey #10, 30 mg Potassium Salt in H15 Plus 2% CSD Suppositories
[7] = Monkey #11, 30 mg Potassium Salt in H15 Plus 2% CSD Suppositories
[8] = Monkey #12 (pregnant animal with uterine recording), 30 mg Potassium Salt in H15 Plus 2% CSD Suppositories
[9] = Monkey #16, 30 mg Potassium Salt in H15 Plus 2% CSD + 10% Triacetin Suppositories
[10] = Monkey #17, 30 mg Potassium Salt in H15 Plus 2% CSD + 10% Triacetin Suppositories
[11] = Monkey #18, 30 mg Potassium Salt in H15 Plus 2% CSD + 10% Triacetin Suppositories

concentration at 0.25 h [1, 3]: 128 ng/mL
concentration at 0.5 h ([1]; Monkey #4, 0.5 Hours, 30 mg Potassium Salt in H15 Suppositories): 3.72 ng/mL
concentration at 1.5 h [1, 3]: 0.41 ng/mL
concentration at 2 h [1, 3]: 0.86 ng/mL
concentration at 3 h [1, 3]: 7.52 ng/mL
concentration at 4 h [1, 3]: 8.39 ng/mL
concentration at 6 h [1, 3]: 17.9 ng/mL
concentration at 24 h [1, 3]: 21.7 ng/mL
concentration at 0.25 h [1, 4]: 10.9 ng/mL
concentration at 1 h [1, 4]: 1.42 ng/mL
concentration at 1.5 h [1, 4]: 5.91 ng/mL
concentration at 2 h [1, 4]: 11.5 ng/mL
concentration at 3 h [1, 4]: 14.2 ng/mL
concentration at 4 h [1, 4]: 22.9 ng/mL
concentration at 6 h [1, 4]: 25 ng/mL
concentration at 24 h [1, 4]: 16.2 ng/mL
concentration at 0.25 h [1, 5]: 76.6 ng/mL
concentration at 0.5 h ([1]; Monkey #6 (pregnant animal with uterine recording), 0.5 Hours, 30 mg Potassium Salt in H15 Suppositories): 68.4 ng/mL
concentration at 1 h [1, 5]: 29.6 ng/mL
concentration at 1.5 h [1, 5]: 77.3 ng/mL
concentration at 2 h [1, 5]: 28.4 ng/mL
concentration at 3 h [1, 5]: 41.7 ng/mL
concentration at 4 h [1, 5]: 42.8 ng/mL
concentration at 6 h [1, 5]: 20.2 ng/mL
concentration at 24 h [1, 5]: 7.77 ng/mL
concentration at 0.25 h [1, 6]: 20.4 ng/mL
concentration at 1 h [1, 6]: 1.5 ng/mL
concentration at 1.5 h [1, 6]: 1.7 ng/mL
concentration at 2 h [1, 6]: 3.57 ng/mL
concentration at 3 h [1, 6]: 12.4 ng/mL
concentration at 4 h [1, 6]: 20.7 ng/mL
concentration at 6 h [1, 6]: 53.8 ng/mL
concentration at 24 h [1, 6]: 16 ng/mL
concentration at 0.5 h ([1]; Monkey #10, .5 Hours, 30 mg Potassium Salt in H15 Plus 2% CSD Suppositories): 2.39 ng/mL
concentration at 0.25 h [1, 7]: 19.8 ng/mL
concentration at 1 h [1, 7]: 6.61 ng/mL
concentration at 1.5 h [1, 7]: 8.13 ng/mL
concentration at 2 h [1, 7]: 9.8 ng/mL
concentration at 3 h [1, 7]: 9.48 ng/mL
concentration at 4 h [1, 7]: 18.7 ng/mL
concentration at 6 h [1, 7]: 28.7 ng/mL
concentration at 24 h [1, 7]: 23.4 ng/mL
concentration at 0.5 h ([1]; Monkey #11, .5 Hours, 30 mg Potassium Salt in H15 Plus 2% CSD Suppositories): 14 ng/mL
concentration at 0.25 h [1, 8]: 104 ng/mL
concentration at 1 h [1, 8]: 40.9 ng/mL
concentration at 1.5 h [1, 8]: 91.1 ng/mL
concentration at 2 h [1, 8]: 66.5 ng/mL
concentration at 3 h [1, 8]: 51.5 ng/mL
concentration at 4 h [1, 8]: 36.1 ng/mL
concentration at 6 h [1, 8]: 22.5 ng/mL
concentration at 24 h [1, 8]: 6.04 ng/mL
concentration at 0.5 h ([1]; Monkey #12 (pregnant animal with uterine recording), .5 Hours, 30 mg Potassium Salt in H15 Plus 2% CSD Suppositories): 55.7 ng/mL
concentration at 0.25 h [1, 9]: 7.45 ng/mL
concentration at 0.5 h ([1]; Monkey #16, 0.5 Hours, 30 mg Potassium Salt in H15 Plus 2% CSD + 10% Triacetin Suppositories): 7 ng/mL
concentration at 1 h [1, 9]: 12.6 ng/mL
concentration at 1.5 h [1, 9]: 19.9 ng/mL
concentration at 2 h [1, 9]: 40.2 ng/mL
concentration at 3 h [1, 9]: 45.5 ng/mL
concentration at 4 h [1, 9]: 31.4 ng/mL
concentration at 6 h [1, 9]: 34.5 ng/mL
concentration at 24 h [1, 9]: 14.2 ng/mL
concentration at 0.25 h [1, 10]: 7.98 ng/mL
concentration at 0.5 h ([1]; Monkey #17, 0.5 Hours, 30 mg Potassium Salt in H15 Plus 2% CSD + 10% Triacetin Suppositories): 2.15 ng/mL
concentration at 1 h [1, 10]: 1.27 ng/mL
concentration at 1.5 h [1, 10]: 1.86 ng/mL
concentration at 2 h [1, 10]: 1.75 ng/mL
concentration at 3 h [1, 10]: 20.1 ng/mL
concentration at 4 h [1, 10]: 3.13 ng/mL
concentration at 6 h [1, 10]: 6.97 ng/mL
concentration at 24 h [1, 10]: 21.9 ng/mL
concentration at 0.25 h [1, 11]: 56.8 ng/mL
concentration at 0.5 h ([1]; Monkey #18, 0.5 Hours, 30 mg Potassium Salt in H15 Plus 2% CSD + 10% Triacetin Suppositories): 207 ng/mL
concentration at 1 h [1, 11]: 64.4 ng/mL
concentration at 1.5 h [1, 11]: 38.3 ng/mL
concentration at 2 h [1, 11]: 87.2 ng/mL
concentration at 3 h [1, 11]: 47.8 ng/mL
concentration at 4 h [1, 11]: 35.5 ng/mL
concentration at 6 h [1, 11]: 33.9 ng/mL
concentration at 24 h [1, 11]: 8.31 ng/mL
Water content ([2]; after 5 days at ambient humidity): 0.16%
hygroscopicity ([2]; crystalline solid): non-hygroscopic
SMILES: C=C1C[C@@H](O)[C@H](/C=C/[C@@H](O)C(C)(C)CCCC)[C@H]1C/C=C\CCCC(=O)O [Potassium Salt, 9-deoxo-16,16-dimethyl-9-methylene-PGE2 potassium salt]

Reference: patent EP0097439A2, “A crystalline prostaglandin salt” (THE UPJOHN COMPANY, priority 1982, dated 1984)
